Laboratory results as given in ChEMBL document CHEMBL5252515, “Discovery of 6-Amino-2-{[(1S)-1-methylbutyl]oxy}-9-[5-(1-piperidinyl)pentyl]-7,9-dihydro-8H-purin-8-one (GSK2245035), a Highly Potent and Selective Intranasal Toll-Like Receptor 7 Agonist for the Treatment of Asthma” (J Med Chem, 2016).
The source made the active and inactive calls. The rule behind the calls is not given here.

What was measured:
[1] = Systemic clearance in rat; type: ADME; settings: in vivo
Toll-like receptor 7 [2] = molecular target: T1, Toll-like receptor 7 (Homo sapiens, UniProt Q9NYK1); experiment: Agonist activity at TLR7 in human whole blood assessed as induction of IFN-gamma production after 20 hrs by electrochemiluminescence assay; type: tissue-based
T1 sequence (Q9NYK1 whole entry): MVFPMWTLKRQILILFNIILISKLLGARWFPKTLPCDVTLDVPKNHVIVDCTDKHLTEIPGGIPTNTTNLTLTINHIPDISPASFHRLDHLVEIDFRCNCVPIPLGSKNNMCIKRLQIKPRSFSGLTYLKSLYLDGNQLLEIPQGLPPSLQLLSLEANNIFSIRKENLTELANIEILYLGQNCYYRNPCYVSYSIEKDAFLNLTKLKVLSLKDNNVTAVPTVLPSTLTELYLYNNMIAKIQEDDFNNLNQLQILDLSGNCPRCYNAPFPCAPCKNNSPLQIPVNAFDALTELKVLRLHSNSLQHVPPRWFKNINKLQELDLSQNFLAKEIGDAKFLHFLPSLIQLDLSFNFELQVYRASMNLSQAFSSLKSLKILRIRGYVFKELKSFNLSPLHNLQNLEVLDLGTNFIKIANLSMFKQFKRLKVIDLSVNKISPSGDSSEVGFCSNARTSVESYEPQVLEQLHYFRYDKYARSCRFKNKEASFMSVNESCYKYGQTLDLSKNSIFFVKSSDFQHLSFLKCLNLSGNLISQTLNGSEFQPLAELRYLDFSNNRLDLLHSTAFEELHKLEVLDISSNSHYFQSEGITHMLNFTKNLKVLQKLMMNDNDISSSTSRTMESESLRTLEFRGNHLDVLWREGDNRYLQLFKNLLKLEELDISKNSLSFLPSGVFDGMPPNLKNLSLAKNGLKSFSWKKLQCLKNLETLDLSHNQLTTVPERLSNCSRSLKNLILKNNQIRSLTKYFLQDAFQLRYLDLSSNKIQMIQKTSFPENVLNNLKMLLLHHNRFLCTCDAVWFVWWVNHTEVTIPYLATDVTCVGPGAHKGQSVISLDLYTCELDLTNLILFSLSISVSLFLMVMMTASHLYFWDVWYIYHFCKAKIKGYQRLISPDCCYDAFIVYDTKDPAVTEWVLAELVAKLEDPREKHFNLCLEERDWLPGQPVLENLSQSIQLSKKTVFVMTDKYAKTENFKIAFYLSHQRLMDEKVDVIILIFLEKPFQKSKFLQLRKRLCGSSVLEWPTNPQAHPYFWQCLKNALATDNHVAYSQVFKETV

Mus musculus = experiment: Increase in IFN-alpha level in BALB/c mouse serum at 0.3 mg/kg, administered intranasally after 2 hrs by ELISA; type: functional, organism-based
[3] = Toxicity in female rat assessed as NOAEL after 8 weeks; settings: in vivo
PBMC = experiment: Immunomodulatory activity in human PBMC assessed as reduction in timothy grass induced IL-5 level after 6 days; type: functional, cell-based; settings: dose 0.01-10000 nM, time 6.0 day
Toll-like receptor 7 [4] = molecular target: T1, Toll-like receptor 7; experiment: Agonist activity at TLR7 in human whole blood assessed as induction of IL-1beta production after 20 hrs by electrochemiluminescence assay; type: tissue-based
[5] = Toxicity in male rat assessed as NOAEL after 14 days; settings: in vivo, time 14 day
Toll-like receptor 7 [6] = molecular target: T1, Toll-like receptor 7; experiment: Agonist activity at TLR7 in human whole blood assessed as induction of IL-10 production after 20 hrs by electrochemiluminescence assay; type: tissue-based
Toll-like receptor 8 = molecular target: T2, Toll-like receptor 8 (Homo sapiens, UniProt Q9NR97); experiment: Agonist activity at TLR8 (unknown origin) expressed in human U2OS cells by luciferase reporter assay; type: cell-based
T2 sequence (Q9NR97 whole entry): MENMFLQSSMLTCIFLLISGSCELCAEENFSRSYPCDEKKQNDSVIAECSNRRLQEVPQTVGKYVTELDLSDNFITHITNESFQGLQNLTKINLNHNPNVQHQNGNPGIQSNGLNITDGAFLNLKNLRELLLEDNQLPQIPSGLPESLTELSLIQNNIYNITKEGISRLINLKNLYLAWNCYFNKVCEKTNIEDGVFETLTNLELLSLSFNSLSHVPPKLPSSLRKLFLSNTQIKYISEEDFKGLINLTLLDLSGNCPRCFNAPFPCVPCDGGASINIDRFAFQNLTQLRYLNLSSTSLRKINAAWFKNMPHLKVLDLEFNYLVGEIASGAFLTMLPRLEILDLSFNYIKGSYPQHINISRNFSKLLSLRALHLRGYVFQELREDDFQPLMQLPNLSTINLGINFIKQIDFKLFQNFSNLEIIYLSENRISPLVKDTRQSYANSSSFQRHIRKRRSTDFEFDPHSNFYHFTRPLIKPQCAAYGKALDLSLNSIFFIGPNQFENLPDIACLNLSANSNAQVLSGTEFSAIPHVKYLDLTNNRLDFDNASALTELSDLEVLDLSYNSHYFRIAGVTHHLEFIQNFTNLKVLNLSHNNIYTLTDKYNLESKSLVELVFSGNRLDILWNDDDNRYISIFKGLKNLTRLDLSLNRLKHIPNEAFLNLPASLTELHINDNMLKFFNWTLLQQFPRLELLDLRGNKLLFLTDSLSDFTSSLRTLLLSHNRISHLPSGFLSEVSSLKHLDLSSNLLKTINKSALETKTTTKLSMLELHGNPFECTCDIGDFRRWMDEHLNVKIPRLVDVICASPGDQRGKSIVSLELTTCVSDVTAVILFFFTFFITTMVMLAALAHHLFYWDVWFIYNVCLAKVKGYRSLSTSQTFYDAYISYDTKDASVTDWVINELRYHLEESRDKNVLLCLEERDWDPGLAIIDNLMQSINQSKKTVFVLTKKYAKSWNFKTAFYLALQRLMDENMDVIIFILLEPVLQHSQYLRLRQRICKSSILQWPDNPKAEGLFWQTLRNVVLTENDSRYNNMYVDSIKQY

Rattus norvegicus = experiment: Induction of IFNalpha production in rat at 0.4 mg/kg measured after 2 hrs; type: functional, organism-based

**Q.** With CCC[C@H](C)Oc1nc(N)c2[nH]c(=O)n(CCCCCN3CCCCC3)c2n1 [GSK-2245035] as the molecule, how does the clearance [1] read?
**A.** 96 mL/min/kg

**Q.** And the EC50 (Toll-like receptor 7 [2])?
**A.** 1.26 µM

**Q.** And the Activity (Mus musculus)?
**A.** Active

**Q.** What about the NOAEL at 1344 h [3] of the same molecule?
**A.** 0.698 mg/kg

**Q.** What about the Activity (PBMC) of the same molecule?
**A.** Dose-Dependent Effect

**Q.** What about the EC50 (Toll-like receptor 7 [4]) of the same molecule?
**A.** 5.01 µM

**Q.** And the NOAEL at 336 h [5]?
**A.** 0.453 mg/kg/day

**Q.** What about the EC50 (Toll-like receptor 7 [6]) of the same molecule?
**A.** 0.251 µM

**Q.** And the EC50 (Toll-like receptor 8)?
**A.** 20 µM

**Q.** What about the Activity (Rattus norvegicus) of the same molecule?
**A.** Active
